What all share (assay type): cell-based
Assay [1] deals with T1, human Nav1.7 (Homo sapiens, UniProt Q15858).
T1 construct: expressed in transfected cells; host or cells: HEK293
As to the kind of experiment: Nav 1.7 IWQ In Vitro Assay (IonWorks Quattro). Conditions: HEK293 cells stably transfected with human Nav 1.7; IonWorks Quattro population patch-clamp; 26th pulse to −20 mV, 5 Hz; cells unclamped 5 to 8 minutes with compound; read-out: hNav1.7 IWQ IC50. The procedure: Nav 1.7 or Nav 1.5 IWQ In Vitro Assay
HEK293 cells stably transfected with either human Nav 1.7 or human Nav 1.5 were recorded in population patch-clamp mode with the IonWorks® Quattro automated electrophysiology system (Molecular Devices, LLC, Sunnyvale, Calif.). Cells were voltage clamped to −110 mV for three seconds (Nav 1.7) or half a second (Nav 1.5) and sodium currents were elicited by a train of 26 depolarizations of 150 msec duration to −20 mV (Nav 1.7) or 0 mV (Nav 1.5) at a frequency of 5 Hz. Cells were then left unclamped for a period of 5 to 8 minutes while a single concentration of test compound was added. Following this compound incubation period, cells were then reclamped to −110 mV for three seconds (Nav1.7) or half a second (Nav1.5) to recover unbound channels and put through the same 26 pulse voltage protocol as above. Peak inward current during the 26th pulse to −20 mV (Nav 1.7) or 0 mV (Nav 1.5) in the presence of compound was divided by the peak inward current evoked by the 26th pulse to −20 mV (Nav1.7) or 0 mV (Nav1.5) in the absence of compound to determine percent inhibition. Concentration-response curves of percent.

Assay [2] concerns the target T1, human Nav1.7. As to the kind of experiment: Nav 1.7 IWB In Vitro Assay (IonWorks Barracuda). Particulars: HEK293 cells stably transfected with human Nav 1.7; IonWorks Barracuda population patch-clamp; cells clamped to −20 mV for 4 minutes with compound; 26th pulse; read-out: hNav1.7 IWB IC50. An outline of the steps:
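Population patch clamp of HEK293 cells stably expressing human Nav 1.7: 26 pulses to −20 mV (150 ms, 5 Hz) from −110 mV, then 4 min at −20 mV with compound, 3 s recovery at −110 mV and the train repeated. % inhibition of 26th-pulse peak current vs no compound; IC50 from concentration-response curves.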

Assay [3] concerns the target T1, human Nav1.7. Description: Nav 1.7 In Vitro PatchXpress (PX) Assay. Conditions: HEK 293 cells stably transfected with human Nav1.7; PatchXpress whole cell voltage clamp; partially inactivated state (holding potential yielding 20 to 50% inactivation); read-out: hNav1.7 PX IC50. Put shortly: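 Whole-cell voltage clamp on HEK 293 cells stably expressing human Nav1.7 (automated patch), holding potential giving 20–50% inactivation; 20 ms pulses to −10 mV at 0.1 Hz. Single compound concentration applied 3 min, peak current inhibition measured; IC50 fitted from 3–5 cells per concentration.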

Molecules are shown by their SMILES. pIC50: −log10 of the molar value.

T1 sequence (Q15858 whole entry): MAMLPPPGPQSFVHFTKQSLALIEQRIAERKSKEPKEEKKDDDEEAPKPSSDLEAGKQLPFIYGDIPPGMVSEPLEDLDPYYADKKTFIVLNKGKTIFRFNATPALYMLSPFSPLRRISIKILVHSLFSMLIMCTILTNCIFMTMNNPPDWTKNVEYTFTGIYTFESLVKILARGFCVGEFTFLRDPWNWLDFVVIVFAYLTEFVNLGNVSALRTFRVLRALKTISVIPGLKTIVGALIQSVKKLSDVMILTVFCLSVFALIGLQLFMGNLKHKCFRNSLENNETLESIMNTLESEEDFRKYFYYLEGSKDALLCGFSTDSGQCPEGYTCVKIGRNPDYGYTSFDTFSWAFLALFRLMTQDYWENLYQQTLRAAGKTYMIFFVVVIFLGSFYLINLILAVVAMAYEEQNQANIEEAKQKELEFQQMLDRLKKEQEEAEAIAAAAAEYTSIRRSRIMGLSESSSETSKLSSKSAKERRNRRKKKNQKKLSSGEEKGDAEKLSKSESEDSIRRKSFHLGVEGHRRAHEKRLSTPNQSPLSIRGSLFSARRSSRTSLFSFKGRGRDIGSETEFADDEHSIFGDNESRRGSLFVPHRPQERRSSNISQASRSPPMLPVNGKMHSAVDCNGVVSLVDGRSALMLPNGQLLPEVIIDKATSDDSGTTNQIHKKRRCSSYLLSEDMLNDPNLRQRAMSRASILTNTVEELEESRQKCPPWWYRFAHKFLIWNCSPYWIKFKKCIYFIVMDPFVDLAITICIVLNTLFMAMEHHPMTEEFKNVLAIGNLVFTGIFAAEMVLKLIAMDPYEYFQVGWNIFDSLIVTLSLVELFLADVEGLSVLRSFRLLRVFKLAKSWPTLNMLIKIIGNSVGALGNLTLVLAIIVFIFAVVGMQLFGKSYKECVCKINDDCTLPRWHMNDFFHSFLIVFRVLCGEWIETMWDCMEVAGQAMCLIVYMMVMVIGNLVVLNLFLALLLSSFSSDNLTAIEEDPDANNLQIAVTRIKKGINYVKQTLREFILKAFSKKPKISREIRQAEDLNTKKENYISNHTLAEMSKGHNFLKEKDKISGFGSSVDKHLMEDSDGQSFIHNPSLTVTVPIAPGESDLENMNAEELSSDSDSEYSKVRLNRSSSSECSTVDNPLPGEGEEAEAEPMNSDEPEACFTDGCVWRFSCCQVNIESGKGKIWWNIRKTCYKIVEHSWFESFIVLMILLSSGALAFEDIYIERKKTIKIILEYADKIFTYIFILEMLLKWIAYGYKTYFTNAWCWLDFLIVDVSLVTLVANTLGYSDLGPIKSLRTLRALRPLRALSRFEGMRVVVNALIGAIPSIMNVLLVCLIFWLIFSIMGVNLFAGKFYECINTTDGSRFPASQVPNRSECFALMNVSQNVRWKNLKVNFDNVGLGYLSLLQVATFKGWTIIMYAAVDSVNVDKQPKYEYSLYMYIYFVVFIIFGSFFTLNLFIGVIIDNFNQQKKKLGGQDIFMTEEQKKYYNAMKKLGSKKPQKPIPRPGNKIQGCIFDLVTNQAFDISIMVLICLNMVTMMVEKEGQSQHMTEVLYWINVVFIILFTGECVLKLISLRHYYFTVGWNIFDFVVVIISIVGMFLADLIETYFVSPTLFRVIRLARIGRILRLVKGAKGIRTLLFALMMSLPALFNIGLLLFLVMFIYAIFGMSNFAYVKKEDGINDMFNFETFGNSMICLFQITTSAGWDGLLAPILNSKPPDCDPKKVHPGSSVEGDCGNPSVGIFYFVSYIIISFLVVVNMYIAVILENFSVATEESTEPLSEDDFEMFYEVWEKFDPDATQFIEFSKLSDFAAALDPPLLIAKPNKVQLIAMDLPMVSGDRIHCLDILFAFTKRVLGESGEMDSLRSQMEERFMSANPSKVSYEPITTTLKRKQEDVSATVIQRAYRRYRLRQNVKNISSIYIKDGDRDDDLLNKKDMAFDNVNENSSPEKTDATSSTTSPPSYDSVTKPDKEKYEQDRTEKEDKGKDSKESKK

For `COc1cc(CCC(F)(F)F)c(F)cc1-n1c2c(ccc1=O)CN(S(=O)(=O)Nc1cccnn1)CC2` [Example 95, P-1-(5-fluoro-2-methoxy-4-(3,3,3-trifluoropropyl)phenyl)-2-oxo-N-(pyridazin-3-yl)-1,2,7,8-tetrahydro-1,6-naphthyridine-6(5H)-sulfonamide], the pIC50 (as a rule, the negative decadic logarithm of the IC50, by convention in mol/L) was 7.68 on human Nav1.7 [1] and 7.44 on human Nav1.7 [2].
The corresponding values for `COc1cc(-c2ccc(F)c(OC(F)(F)F)c2)c(F)cc1-n1c2c(ccc1=O)CN(S(=O)(=O)Nc1cccnn1)CC2` [Example 81, P-1-(2,4′-difluoro-5-methoxy-3′-(trifluoromethoxy)-[1,1′-biphenyl]-4-yl)-2-oxo-N-(pyridazin-3-yl)-1,2,7,8-tetrahydro-1,6-naphthyridine-6(5H)-sulfonamide] are 8.41 and 8.07.
Consider `COc1cc(-c2ccc(F)c(C(F)F)c2)c(F)cc1-n1c2c(ccc1=O)CN(S(=O)(=O)Nc1cccnn1)CC2` [Example 85, P-1-(3′-(difluoromethyl)-2,4′-difluoro-5-methoxy-[1,1′-biphenyl]-4-yl)-2-oxo-N-(pyridazin-3-yl)-1,2,7,8-tetrahydro-1,6-naphthyridine-6(5H)-sulfonamide], for which the pIC50 was 8.37 on human Nav1.7 [1] and 7.76 on human Nav1.7 [2].
On the same counts, the results for `COc1cc(-c2ccc(C(F)F)c(F)c2)c(F)cc1-n1c2c(ccc1=O)CN(S(=O)(=O)Nc1cccnn1)CC2` [Example 87, P-1-(4′-(difluoromethyl)-2,3′-difluoro-5-methoxy-[1,1′-biphenyl]-4-yl)-2-oxo-N-(pyridazin-3-yl)-1,2,7,8-tetrahydro-1,6-naphthyridine-6(5H)-sulfonamide] are 7.91 and 7.72.
With `COc1cc(-c2cc(OC)c(-n3c4c(ccc3=O)CN(S(=O)(=O)Nc3cccnn3)CC4)cc2F)cc(C(F)(F)F)c1` [Example 83, P-1-(2-fluoro-3′,5-dimethoxy-5′-(trifluoromethyl)-[1,1′-biphenyl]-4-yl)-2-oxo-N-(pyridazin-3-yl)-1,2,7,8-tetrahydro-1,6-naphthyridine-6(5H)-sulfonamide], the pIC50 at human Nav1.7 [1] was 8.47; on human Nav1.7 [2] it was 8.29.
The corresponding values for `COc1cc(-c2cnc(OC)c(C(F)(F)F)c2)c(F)cc1-n1c2c(ccc1=O)CN(S(=O)(=O)Nc1cccnn1)CC2` [Example 80, P-1-(5-fluoro-2-methoxy-4-(6-methoxy-5-(trifluoromethyl)pyridin-3-yl)phenyl)-2-oxo-N-(pyridazin-3-yl)-1,2,7,8-tetrahydro-1,6-naphthyridine-6(5H)-sulfonamide] are 8.27 and 7.86.
On the same counts, the results for `COc1cc(-c2cc(F)c(F)c(OC)c2)c(F)cc1-n1c2c(ccc1=O)CN(S(=O)(=O)Nc1cccnn1)CC2` [Example 79, P-2-oxo-N-(pyridazin-3-yl)-1-(2,3′,4′-trifluoro-5,5′-dimethoxy-[1,1′-biphenyl]-4-yl)-1,2,7,8-tetrahydro-1,6-naphthyridine-6(5H)-sulfonamide] are 8.41 and 8.59.
The corresponding values for `COc1cc(CCC(F)(F)F)c(Cl)cc1-n1c2c(ccc1=O)CN(S(=O)(=O)Nc1cccnn1)CC2` (single isomer, unassigned) [Example 96-P, P-1-(5-chloro-2-methoxy-4-(3,3,3-trifluoropropyl)phenyl)-2-oxo-N-(pyridazin-3-yl)-1,2,7,8-tetrahydro-1,6-naphthyridine-6(5H)-sulfonamide] are 8.05 and 7.47.
For the molecule `COc1cc(-c2ccc(OC)c(C(F)(F)F)c2)c(F)cc1-n1c2c(ccc1=O)CN(S(=O)(=O)Nc1cccnn1)CC2` [Example 82, P-1-(2-fluoro-4′,5-dimethoxy-3′-(trifluoromethyl)-[1,1′-biphenyl]-4-yl)-2-oxo-N-(pyridazin-3-yl)-1,2,7,8-tetrahydro-1,6-naphthyridine-6(5H)-sulfonamide], the negative logarithm of the IC50 (pIC50) at human Nav1.7 [1] was 7.81; at human Nav1.7 [2] it was 7.59.
Consider `COc1cc(-c2cc(F)c(F)c(C(F)F)c2)c(F)cc1-n1c2c(ccc1=O)CN(S(=O)(=O)Nc1cccnn1)CC2` [Example 86, P-1-(3′-(difluoromethyl)-2,4′,5′-trifluoro-5-methoxy-[1,1′-biphenyl]-4-yl)-2-oxo-N-(pyridazin-3-yl)-1,2,7,8-tetrahydro-1,6-naphthyridine-6(5H)-sulfonamide], for which the pIC50 was 8.15 on human Nav1.7 [1] and 7.84 at human Nav1.7 [2].
`COc1cc(-c2cc(F)cc(C(F)F)c2)c(F)cc1-n1c2c(ccc1=O)CN(S(=O)(=O)Nc1cccnn1)CC2` [Example 84, P-1-(3′-(difluoromethyl)-2,5′-difluoro-5-methoxy-[1,1′-biphenyl]-4-yl)-2-oxo-N-(pyridazin-3-yl)-1,2,7,8-tetrahydro-1,6-naphthyridine-6(5H)-sulfonamide]: the pIC50 on human Nav1.7 [1] is 8.08; at human Nav1.7 [2] it was 7.77.
The corresponding values for `COc1cc(CCC(F)(F)F)c(F)cc1-n1c2c(ccc1=O)CN(S(=O)(=O)Nc1ccon1)CC2` [Example 94, P-1-(5-fluoro-2-methoxy-4-(3,3,3-trifluoropropyl)phenyl)-N-(isoxazol-3-yl)-2-oxo-1,2,7,8-tetrahydro-1,6-naphthyridine-6(5H)-sulfonamide] are 7.73 and 7.47.
Consider `COc1cc(-c2ccc(F)c(F)c2)c(F)cc1-n1c2c(ccc1=O)CN(S(=O)(=O)Nc1ncccn1)CC2` (single isomer, unassigned) [Example 28-P, P-2-oxo-N-2-pyrimidinyl-1-(2,3′,4′-trifluoro-5-methoxy-4-biphenylyl)-1,5,7,8-tetrahydro-1,6-naphthyridine-6(2H)-sulfonamide], for which the pIC50 on human Nav1.7 [3] was 6.30; at human Nav1.7 [2], 7.09.
For `COc1cc(-c2ccc(C(F)(F)F)cc2)c(F)cc1-n1c2c(ccc1=O)CN(S(=O)(=O)Nc1cccnn1)CC2` [Example 67, P-1-(2-fluoro-5-methoxy-4′-(trifluoromethyl)-[1,1′-biphenyl]-4-yl)-2-oxo-N-(pyridazin-3-yl)-1,2,7,8-tetrahydro-1,6-naphthyridine-6(5H)-sulfonamide], the pIC50 at human Nav1.7 [3] was 7.12; on human Nav1.7 [2] it was 7.69.
On the same counts, the results for `COc1cc(-c2ccc(F)c(F)c2)c(F)cc1-n1c2c(ccc1=O)CN(S(=O)(=O)Nc1cccnn1)CC2` (single isomer, unassigned) [Example 32-M, M-2-oxo-N-3-pyridazinyl-1-(2,3′,4′-trifluoro-5-methoxy-4-biphenylyl)-1,5,7,8-tetrahydro-1,6-naphthyridine-6(2H)-sulfonamide] are 4.69 and 6.00.
Consider `COc1cc(-c2cc(F)cc(Cl)c2)c(F)cc1-n1c2c(ccc1=O)CN(S(=O)(=O)Nc1cc(C)ncn1)CC2` (racemic) [4-(Rac), (Rac)-1-(3′-chloro-2,5′-difluoro-5-methoxy-4-biphenylyl)-N-(6-methyl-4-pyrimidinyl)-2-oxo-1,5,7,8-tetrahydro-1,6-naphthyridine-6(2H)-sulfonamide], for which the pIC50 on human Nav1.7 [3] was 6.41; at human Nav1.7 [2], 7.34.
On the same counts, the results for `COc1cc(-c2cc(F)cc(Cl)c2)ccc1-n1c2c(ccc1=O)CN(S(=O)(=O)Nc1cccnn1)CC2` (single isomer, unassigned) [Example 8-P, P-1-(3′-chloro-5′-fluoro-3-methoxy-4-biphenylyl)-2-oxo-N-3-pyridazinyl-1,5,7,8-tetrahydro-1,6-naphthyridine-6(2H)-sulfonamide] are 6.62 and 7.59.
On the same counts, the results for `COc1cc(-c2ccc(Cl)cc2)c(F)cc1-n1c2c(ccc1=O)CN(S(=O)(=O)Nc1cccnn1)CC2` [Example 61, P-1-(4′-chloro-2-fluoro-5-methoxy-[1,1′-biphenyl]-4-yl)-2-oxo-N-(pyridazin-3-yl)-1,2,7,8-tetrahydro-1,6-naphthyridine-6(5H)-sulfonamide] are 6.71 and 7.62.
For `COc1cc(-c2cc(F)cc(F)c2)c(F)cc1-n1c2c(ccc1=O)CN(S(=O)(=O)Nc1ncon1)CC2` (racemic) [Example 17-(Rac), (Rac)-N-1,2,4-oxadiazol-3-yl-2-oxo-1-(2,3′,5′-trifluoro-5-methoxy-4-biphenylyl)-1,5,7,8-tetrahydro-1,6-naphthyridine-6(2H)-sulfonamide], the pIC50 at human Nav1.7 [3] is 5.95; at human Nav1.7 [2], 6.72.

Values taken from patent publication US10472356B2, “Bicyclic ketone sulfonamide compounds” (AMGEN INC., priority 2015, dated 2019).
